Series [1] has as its target Serine/threonine-protein kinase Chk2 (Homo sapiens, UniProt O96017).
Description: Inhibition of CHK2 assessed as inhibition of substrate phosphorylation using fluorescent peptide substrate by microplate reader assay
Series [2] concerns the target T1, Serine/threonine-protein kinase Chk1 (Homo sapiens, UniProt O14757).
T1 sequence (O14757 whole entry): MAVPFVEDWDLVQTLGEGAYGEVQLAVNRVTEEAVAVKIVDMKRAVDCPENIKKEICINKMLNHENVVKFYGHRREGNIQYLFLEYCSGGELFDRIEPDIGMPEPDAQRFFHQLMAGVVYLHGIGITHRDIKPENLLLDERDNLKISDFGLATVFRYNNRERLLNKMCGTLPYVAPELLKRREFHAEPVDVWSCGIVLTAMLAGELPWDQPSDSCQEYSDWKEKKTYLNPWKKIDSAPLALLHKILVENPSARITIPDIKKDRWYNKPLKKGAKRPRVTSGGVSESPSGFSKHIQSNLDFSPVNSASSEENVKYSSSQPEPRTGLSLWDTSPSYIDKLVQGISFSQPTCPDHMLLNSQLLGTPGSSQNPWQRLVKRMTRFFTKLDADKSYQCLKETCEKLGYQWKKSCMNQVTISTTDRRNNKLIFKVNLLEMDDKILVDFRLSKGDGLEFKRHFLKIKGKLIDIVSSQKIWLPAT
Description: Inhibition of CHK1 assessed as inhibition of substrate phosphorylation using fluorescent peptide substrate by microplate reader assay

Series [3] has as its target Ribosomal protein S6 kinase alpha-3 (Homo sapiens, UniProt P51812).
Description: Inhibition of RSK2 assessed as inhibition of substrate phosphorylation using fluorescent peptide substrate by microplate reader assay
Series [4] concerns the target T2, Aurora kinase A (Homo sapiens) (UniProt O14965).
T2 sequence (whole entry): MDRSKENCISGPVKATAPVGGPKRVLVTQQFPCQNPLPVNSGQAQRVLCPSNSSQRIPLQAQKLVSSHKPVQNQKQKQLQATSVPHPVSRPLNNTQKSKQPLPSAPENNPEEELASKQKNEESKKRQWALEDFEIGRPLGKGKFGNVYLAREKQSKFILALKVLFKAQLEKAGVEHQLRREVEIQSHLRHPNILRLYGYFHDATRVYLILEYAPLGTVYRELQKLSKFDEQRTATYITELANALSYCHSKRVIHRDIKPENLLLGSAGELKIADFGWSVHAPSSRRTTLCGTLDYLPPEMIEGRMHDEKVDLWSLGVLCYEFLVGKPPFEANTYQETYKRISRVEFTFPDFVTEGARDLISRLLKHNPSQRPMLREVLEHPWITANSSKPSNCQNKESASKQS
Put plainly: Inhibition of Aurora kinase A assessed as inhibition of substrate phosphorylation using fluorescent peptide substrate up to 100 uM by microplate reader assay.

Another series deals with MCF-10A. Put plainly: Antiproliferative activity against human MCF10A cells assessed as reduction in cell viability after 48 hrs celltiter glo assay. It counts as cell-based. A general note: Cellular ATP, detected with luciferase, serves as a proxy for viable cell number.
The next series relates to MCF7. The experiment in a line: Antiproliferative activity against human MCF7 cells assessed as reduction in cell viability after 48 hrs celltiter glo assay. The class given is functional, cell-based.

Structures are written as SMILES. Active and inactive are the calls of the source.

Chain of Serine/threonine-protein kinase Chk2 (O96017 whole entry): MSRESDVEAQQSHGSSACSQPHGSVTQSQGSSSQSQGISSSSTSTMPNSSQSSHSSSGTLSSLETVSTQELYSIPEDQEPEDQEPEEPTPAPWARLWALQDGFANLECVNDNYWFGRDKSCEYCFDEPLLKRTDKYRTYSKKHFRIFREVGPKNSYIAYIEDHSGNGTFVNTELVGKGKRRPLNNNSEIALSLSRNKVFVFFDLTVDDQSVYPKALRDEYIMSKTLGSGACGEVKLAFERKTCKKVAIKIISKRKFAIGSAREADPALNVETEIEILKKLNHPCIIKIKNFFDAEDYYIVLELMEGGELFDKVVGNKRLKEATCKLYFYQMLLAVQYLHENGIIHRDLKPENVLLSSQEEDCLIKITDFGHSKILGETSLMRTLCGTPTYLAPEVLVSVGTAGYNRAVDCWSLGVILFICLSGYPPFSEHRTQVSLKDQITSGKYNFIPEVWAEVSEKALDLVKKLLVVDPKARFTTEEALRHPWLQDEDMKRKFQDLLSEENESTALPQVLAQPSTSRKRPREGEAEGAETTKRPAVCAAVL
Chain of Ribosomal protein S6 kinase alpha-3 (P51812 whole entry): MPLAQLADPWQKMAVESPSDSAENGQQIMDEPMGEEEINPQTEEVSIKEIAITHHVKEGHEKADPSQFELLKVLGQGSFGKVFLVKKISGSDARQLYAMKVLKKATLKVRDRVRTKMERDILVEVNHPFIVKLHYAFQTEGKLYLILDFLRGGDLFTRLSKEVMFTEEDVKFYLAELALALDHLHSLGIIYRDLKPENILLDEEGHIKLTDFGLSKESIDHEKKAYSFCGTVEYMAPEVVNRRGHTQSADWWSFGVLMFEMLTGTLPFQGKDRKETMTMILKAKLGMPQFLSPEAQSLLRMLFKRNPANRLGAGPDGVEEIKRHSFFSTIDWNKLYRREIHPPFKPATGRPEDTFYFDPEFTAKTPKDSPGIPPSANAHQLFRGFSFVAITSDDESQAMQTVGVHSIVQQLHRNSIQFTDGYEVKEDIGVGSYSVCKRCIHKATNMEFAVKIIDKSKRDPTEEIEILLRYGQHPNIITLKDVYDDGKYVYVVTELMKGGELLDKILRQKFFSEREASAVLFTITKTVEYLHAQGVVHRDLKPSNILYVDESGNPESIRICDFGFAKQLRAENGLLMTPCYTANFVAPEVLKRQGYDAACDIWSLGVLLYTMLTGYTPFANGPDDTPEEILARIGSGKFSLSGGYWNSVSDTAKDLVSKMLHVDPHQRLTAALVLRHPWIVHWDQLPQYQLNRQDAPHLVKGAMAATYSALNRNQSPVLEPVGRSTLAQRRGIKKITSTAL

As to `Cc1sc2nc(-c3ccc(Cl)c([N+](=O)[O-])c3)c(/C=N/NC(=N)N)n2c1C`, the half-maximal inhibitory concentration (IC50) in series [1] is 48.5 µM; in series [2], over 100 µM; in series [3], 13.9 µM.
Regarding `COc1cc([N+](=O)[O-])c(OC)cc1-c1nc2ccccn2c1/C=N/NC(=N)N`, the inhibition entry in series [4] was “inactive”. For the same molecule, the figures for the IC50 in series [1], in series [2] and in series [3] were over 100 µM, over 100 µM and 7.8 µM, respectively.
Turning to `CCCc1cn2c(/C=N/NC(=N)N)c(-c3ccc([N+](=O)[O-])cc3)nc2s1`, the IC50 in series [1] was over 100 µM; in series [2], over 100 µM; in series [3], 20.9 µM.
For `Cc1cn2c(/C=N/NC(=N)N)c(-c3cc(Cl)sc3Cl)nc2s1`, the figures for the IC50 in series [1], in series [2] and in series [3] were over 100 µM, over 100 µM and 26.5 µM, respectively.
Consider `Cc1cn2c(/C=N/NC(=N)N)c(-c3cccc([N+](=O)[O-])c3)nc2s1`, for which the IC50 in series [1] is 59 µM; in series [2], over 100 µM; in series [3] it was 17.5 µM.
In the case of `N=C(N)N/N=C\c1c(-c2ccc(F)cc2)nc2sccn12`, the inhibition entry in series [4] is “inactive”. The half-inhibitory concentration (IC50) in series [1], in series [2] and in series [3] was over 100 µM throughout.
As to `CCc1cn2c(/C=N/NC(=N)N)c(-c3cc([N+](=O)[O-])c(Cl)cc3Cl)nc2s1`, the IC50 in series [1] is 59 µM; in series [2], over 20 µM; in series [3], 83 µM.
`N=C(N)N/N=C/c1c(-c2cc([N+](=O)[O-])c(Cl)cc2Cl)nc2sccn12`: the values for the IC50 in series [1], in series [2] and in series [3] were over 100 µM, over 100 µM and 5.93 µM, respectively.
As for `Cc1csc2nc(-c3ccc(Cl)c([N+](=O)[O-])c3)c(/C=N/NC(=N)N)n12`, the values for the IC50 in series [1], in series [2] and in series [3] were 84.4 µM, over 100 µM and 44.8 µM, respectively.
On the same counts, the results for `CCCc1cn2c(/C=N/NC(=N)N)c(-c3cccc([N+](=O)[O-])c3)nc2s1` are 69.5 µM, over 100 µM and 13.2 µM.
Regarding `N=C(N)N/N=C/c1c(-c2cc(Cl)sc2Cl)nc2sc3ccccc3n12`, the inhibition result in series [4] was “inactive”. For the same molecule, the concentration for half-maximal inhibition (IC50) is over 100 µM in series [1], over 100 µM in series [2] and 12 µM in series [3].
For the molecule `N=C(N)N/N=C/c1c(-c2ccc(Cl)c([N+](=O)[O-])c2)nc2sc3ccccc3n12`, the IC50 in series [1] was over 100 µM; in series [2], over 100 µM; in series [3] it was 7.32 µM.
Take `Cc1cn2c(/C=N/NC(=N)N)c(-c3ccc(Cl)c([N+](=O)[O-])c3)nc2s1`: the IC50 in series [1] is 64.8 µM; in series [2] it was over 100 µM; in series [3], 3.76 µM.
On to `N=C(N)N/N=C\c1c(-c2ccc(Br)c([N+](=O)[O-])c2)nc2sccn12`, for which the inhibition entry in series [4] is “inactive”. The concentration for half-maximal inhibition (IC50) is over 100 µM in series [1], over 100 µM in series [2] and 56.7 µM in series [3].
For the molecule `CCCc1cn2c(/C=N/NC(=N)N)c(-c3ccc(Cl)c([N+](=O)[O-])c3)nc2s1`, the IC50 was 90.5 µM in series [1], over 100 µM in series [2] and 6.43 µM in series [3].
With `Cc1cn2c(/C=N\NC(=N)N)c(-c3ccc(F)cc3)nc2s1`, in series [4], the inhibition result is “inactive”. The IC50 was over 50 µM in series [1], over 100 µM in series [2] and over 100 µM in series [3].
For `N=C(N)N/N=C/c1c(-c2ccc(F)c([N+](=O)[O-])c2)nc2sc(Cl)cn12`, the inhibition entry in series [4] is “inactive”. For the same molecule, the IC50 in series [1] was 41.3 µM; in series [2] it was over 100 µM; in series [3], 3.93 µM.
Consider `N#Cc1ccc(-c2nc3sc(Cl)cn3c2/C=N/NC(=N)N)cc1`, for which the inhibition entry in series [4] was “inactive”. Further, the half-inhibitory concentration (IC50) in series [1] was 93.5 µM; in series [2] it was over 100 µM; in series [3], 8.55 µM.
With `CCCc1cn2c(/C=N/NC(=N)N)c(-c3cc([N+](=O)[O-])c(Cl)cc3Cl)nc2s1`, the concentration for half-maximal inhibition (IC50) in series [1] is over 100 µM; in series [2] it was over 100 µM; in series [3], 5.97 µM.
For `Cc1cn2c(/C=N/NC(=N)N)c(-c3cc([N+](=O)[O-])c(Cl)cc3Cl)nc2s1`, the 50% inhibitory concentration (IC50) in series [1] was over 100 µM; in series [2] it was over 100 µM; in series [3], 4.53 µM.
For `N=C(N)N/N=C/c1c(-c2cc(Cl)sc2Cl)nc2sc(Cl)cn12`, the inhibition entry in series [4] is “inactive”. Besides, the values for the half-inhibitory concentration (IC50) in series [1], in series [2] and in series [3] were over 100 µM, over 100 µM and 8.26 µM, respectively.
Consider `Cc1sc2nc(-c3cccnc3)c(/C=N/NC(=N)N)n2c1C`, for which the results for the 50% inhibitory concentration (IC50) in series [1], in series [2] and in series [3] were 6.58 µM, over 100 µM and 100 µM, respectively.
Consider `COc1cc([N+](=O)[O-])c(OC)cc1-c1nc2sc(Cl)cn2c1/C=N/NC(=N)N/N=C/c1c(-c2cc(OC)c([N+](=O)[O-])cc2OC)nc2sc(Cl)cn12`, for which the 50% inhibitory concentration (IC50) is over 100 µM in series [1], over 100 µM in series [2] and 11.4 µM in series [3].
With `N=C(N)N/N=C/c1c(-c2cc(Cl)sc2Cl)nc2sccn12`, the half-maximal inhibitory concentration (IC50) in series [1] was 65 µM; in series [2] it was over 100 µM; in series [3] it was 79 µM.
For `Cc1cn2c(/C=N/NC3=NCCN3)c(-c3ccc(Cl)c([N+](=O)[O-])c3)nc2s1`, the IC50 in series [1] was over 100 µM; in series [2], over 100 µM; in series [3], 20.5 µM.
Turning to `N=C(N)N/N=C/c1c(-c2ccc(Cl)c([N+](=O)[O-])c2)nc2ccccn12`, the values for the IC50 in series [1], in series [2] and in series [3] were 79 µM, over 100 µM and 2.89 µM, respectively.
Consider `Cc1cn2c(/C=N\NC(=N)N)c(-c3ccc(F)c([N+](=O)[O-])c3)nc2s1`, for which the inhibition entry in series [4] is “inactive”. Besides, the concentration for half-maximal inhibition (IC50) amounted to 18.8 µM in series [1], 78.5 µM in series [2] and 30.7 µM in series [3].
For the molecule `N=C(N)N/N=C/c1c(-c2ccc(N)cc2)nc2sccn12`, the IC50 in series [1] is 67.5 µM; in series [2] it was over 100 µM; in series [3], 3 µM.
On to `N=C(N)N/N=C/c1c(-c2ccc(F)cc2)nc2sc(Cl)cn12`, for which the inhibition result in series [4] was “inactive”. In addition, the IC50 is 90 µM in series [1], over 100 µM in series [2] and 86 µM in series [3].
As to `N=C(N)N/N=C\c1c(-c2ccc(F)c([N+](=O)[O-])c2)nc2sccn12`, in series [4], the inhibition result was “inactive”. Besides, the figures for the IC50 in series [1], in series [2] and in series [3] were 77.5 µM, over 100 µM and 53.8 µM, respectively.
On to `COc1cc([N+](=O)[O-])c(OC)cc1-c1nc2sccn2c1/C=N/NC(=N)N`, for which the IC50 in series [1] was 96 µM; in series [2], over 100 µM; in series [3] it was 3.58 µM.
With `Cc1cn2c(/C=N/NC(=N)N)c(-c3ccc([N+](=O)[O-])cc3)nc2s1.Cl`, the Activity entry in the series on MCF-10A is “Toxic”. Also, the result in the series with MCF7 was Active. Besides, the results for the half-inhibitory concentration (IC50) in series [1], in series [2] and in series [3] were 83 µM, over 100 µM and 2.8 µM, respectively.
For `N=C(N)N/N=C/c1c(-c2cccc([N+](=O)[O-])c2)nc2sc(Cl)cn12`, the IC50 in series [1] is over 100 µM; in series [2] it was over 100 µM; in series [3], 6.03 µM.
Consider `N=C(N)N/N=C/c1c(-c2ccc([N+](=O)[O-])cc2)nc2sccn12`, for which the half-inhibitory concentration (IC50) was over 100 µM in series [1], over 100 µM in series [2] and 5.66 µM in series [3].
For `Cc1csc2nc(-c3cccnc3)c(/C=N/NC(=N)N)n12`, the 50% inhibitory concentration (IC50) is 34.3 µM in series [1], over 100 µM in series [2] and 100 µM in series [3].
On to `Cc1cn2c(/C=N/NC(=N)NN)c(-c3ccc(Cl)c([N+](=O)[O-])c3)nc2s1`, for which the IC50 in series [1] was over 100 µM; in series [2] it was over 100 µM; in series [3], 18 µM.
As for `N=C(N)N/N=C/c1c(-c2cccc([N+](=O)[O-])c2)nc2sccn12`, the IC50 in series [1] is over 100 µM; in series [2], over 100 µM; in series [3], 18.5 µM.
For the molecule `N=C(N)N/N=C\c1c(-c2cccc([N+](=O)[O-])c2F)nc2sccn12`, the inhibition result in series [4] is “inactive”. Moreover, the IC50 in series [1] and in series [3] was over 100 µM throughout.
In the case of `N=C(N)N/N=C/c1c(-c2ccc(Cl)cc2)nc2sc(Cl)cn12`, the half-maximal inhibitory concentration (IC50) is 49.3 µM in series [1], over 7900 µM in series [2] and 14 µM in series [3].
For the molecule `COc1cc([N+](=O)[O-])c(OC)cc1-c1nc2sc3ccccc3n2c1/C=N/NC(=N)N`, in series [4], the inhibition entry was “inactive”. The 50% inhibitory concentration (IC50) in series [1] was over 100 µM; in series [2], over 100 µM; in series [3] it was 10.1 µM.

As a reminder, the IC50 is the concentration needed to halve the response being measured.

The record behind these values is ChEMBL document CHEMBL1909514, “Imidazo[2,1-b]thiazole guanylhydrazones as RSK2 inhibitors” (Eur J Med Chem, 2011).
